Key:
[1] = test system: NQO1 specific enzyme activity in BEAS-2B cells (marker for NRF2 activation); experiment: Beas2B NQO1 MTT Assay; type: cell-based; conditions: Homo sapiens, NQO1 specific activity induction, 48 hours with compound
From the text: NAD(P)H:quinone oxidoreductase 1 (NQO1), also called DT diaphorase, is a homodimeric FAD-containing enzyme that catalyses obligatory NAD(P)H-dependent two-electron reductions of quinones and protects cells against the toxic and neoplastic effects of free radicals and reactive oxygen species arising from one-electron reductions. The transcription of NQO1 is finely regulated by NRF2, and thus NQO1 activity is a good marker for NRF2 activation. On day one, frozen BEAS-2B cells (ATCC) were thawed in a water bath, counted, and re-suspended at a concentration of 250,000 cells/mL. Fifty microliters of cells were plated in 384 well black clear-bottomed plates. Plates were incubated at 37° C., 5% CO2 overnight. On day two, plates were centrifuged and 50 nL of compound or controls were added to the cells. Plates were then incubated at 37° C., 5% CO2 for 48 hours. On day four, medium was aspirated from the plate and crude cell lysates were made by adding 13 uL of 1× Cell Signaling Technologies lysis buffer with 1 Complete, Mini, EDTA-free Protease Inhibitor Tablet (Roche) for each 10 mL of lysis buffer. After lysis plates were incubated for 20 minutes at room temperature. Two microliters of lysate were removed for use in Cell Titer Glo assay (Promega) and MTT cocktail was prepared (Prochaska et. al. 1998) for measurement of NQO1 activity. Fifty microliters of MTT cocktail was added to each well, plate was centrifuged, and analysed on an Envision plate reader (Perkin Elmer) using Absorbance 570 nm label for 30 minutes. Product formation was measured kinetically and the pEC50 of NQO1 specific activity induction was calculated by plotting the change in absorbance (Delta OD/min) versus the log of compound concentration followed by 3-parameter fitting.
EC50s <1 nM (+++++), EC50s 10 nM-1 nM (++++), EC50s 10-100 nM (+++), EC50s 100 nM-1 μM (++), EC50s 1-10 μM (+), EC50s >10 μM (−), or were not determined (ND).

[2] = biological target: T1, full length NRF2 protein and full length Keap1 protein (Homo sapiens, UniProt Q14145); experiment: NRF2-Keap1 TR-FRET Low Protein Assay; type: binding; conditions: Keap1 FlagHis, biotin-NRF2
T1 construct: full length NRF2 protein and full length Keap1 protein; His
From the text: NRF2-Keap1 TR-FRET Low Protein Assay In the NRF2-Keap1 TR-FRET (time-resolved fluorescence resonance energy transfer) low protein assay, full length NRF2 protein and full length Keap1 protein (Keap1 exists a dimer) are used. The assay detects a compound's ability to displace the binding of Keap1 FlagHis with biotinylated Avi-NRF2 protein. Biotin-NRF2 binds to streptavidin-europium (a component of the detection mix) and Keap1 FlagHis is recognized by anti-Flag APC (allophycocyanin) antibody (also a component of the detection mix). If binding occurs between the two proteins, there will be an energy transfer from the Eu+3 (donor) at 615 nm to the APC (acceptor) at 665 nm. A potential NRF2 inhibitor will cause a reduction in the TR-FRET signal by interfering with the binding of Keap1 to NRF2.
Ten nanoliters of 100× compound dose response curves (serial 3-fold dilutions) in DMSO were stamped using an Echo liquid handling system (Labcyte) into 384-well, low volume, black assay plates (Greiner, #784076), with DMSO in columns 6 and 18. An additional 90 nl DMSO was added to each well, to bring the total volume to 100 nl per well. The top concentration of compound was located in columns 1 and 13, with the serial dilutions going across the row. All reagents were diluted in assay buffer (50 mM Tris, pH 8.0, 5 mM MgCl2, 100 mM NaCl, 0.005% BSA, 1 mM DTT, and 2 mM CHAPS. The BSA, DTT, and CHAPS were added to the assay buffer on the day of assay. Using a Multidrop Combi (Thermo Electron Corporation) equipped with a metal tip dispenser, 5 ul of 1.25 nM Keap1 FlagHis protein was added to all wells of the compound plate, with the exception of the wells in column 18. Wells in column 18 received 5 ul of assay buffer instead. Plates were centrifuged at 500 rpm for 1 minute, covered with a plate lid, and incubated at 37° C. for 2.25 hours. Plates were then removed from the incubator and allowed to cool to RT for 15 minutes. Five microliters of 2.5 nM biotin-NRF2 protein was then added to all wells of the plates and the plates were spun at 500 rpm for 1 minute, followed by incubating at 4° C. for 1.25 hours. The plates were then allowed to warm to RT for 15 minutes, followed by the addition of 10 ul of detection mix (1 nM Streptavidin Eu+ W1024 and 5 ug/ml mouse anti-DYKDDDDK IgG conjugated to SureLight APC antibody; both from Columbia Biosciences) to all wells. Plates were spun at 500 rpm for 1 minute, incubated for 1 hour at RT, and read on an Envision plate reader using a 320 nm excitation filter and 615 nm and 665 nm emission filters. Compound response (% inhibition) and potency (pIC50) were calculated based on the ratio of the two emissions (665 nm/615 nm) and then the transformed data is normalized against controls in the assay (control 1=1% DMSO in the presence of NRF2 and Keap1 protein and control 2=1% DMSO in the presence of only the NRF2 protein). Data analysis was handled using the software package Abase XE (Surrey, United Kingdom). The % inhibition values were calculated from the ratio (transformed) data by the equation:
100−(100*(compound response−average control 2)/(average control 1−average control2)).
For calculation of pIC50s, Abase XE used a four-parameter equation.
IC50s<10 nM (+++++), IC50s 10-100 nM (++++), IC50s 100 nM-1 uM (+++), IC50s 1-10 uM (++). & IC50s 10 uM-100 uM (+), IC50s >100 uM (−), or were not determined (ND).

T1 sequence (Q14145 whole entry): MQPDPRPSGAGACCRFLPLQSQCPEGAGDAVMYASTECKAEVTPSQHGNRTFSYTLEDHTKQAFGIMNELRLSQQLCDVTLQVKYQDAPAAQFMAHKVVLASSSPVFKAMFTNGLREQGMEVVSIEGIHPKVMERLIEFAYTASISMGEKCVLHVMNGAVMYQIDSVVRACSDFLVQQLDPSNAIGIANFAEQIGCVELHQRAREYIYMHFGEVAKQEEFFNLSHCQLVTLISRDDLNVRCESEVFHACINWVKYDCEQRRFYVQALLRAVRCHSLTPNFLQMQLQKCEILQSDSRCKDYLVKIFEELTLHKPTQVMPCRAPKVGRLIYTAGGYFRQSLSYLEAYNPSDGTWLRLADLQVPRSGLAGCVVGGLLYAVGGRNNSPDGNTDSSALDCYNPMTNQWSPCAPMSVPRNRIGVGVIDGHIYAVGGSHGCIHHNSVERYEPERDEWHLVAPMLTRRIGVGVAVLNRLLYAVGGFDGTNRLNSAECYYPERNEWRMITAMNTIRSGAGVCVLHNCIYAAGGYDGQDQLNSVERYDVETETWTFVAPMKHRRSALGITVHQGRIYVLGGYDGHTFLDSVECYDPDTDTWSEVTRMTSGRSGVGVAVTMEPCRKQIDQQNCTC

SMILES	EC50 [2]	EC50 [1]
CCC[C@@H]1CCCCN1C(=O)c1cccc(-c2cccc(-n3ccc(C(=O)O)c3[C@@H]3C[C@H]3c3cn(C)nn3)c2)c1F (racemic) [Example 15, 1-(2′-fluoro-3′-((R)-2-propylpiperidine-1-carbonyl)-[1,1′-biphenyl]-3-yl)-2-(trans-2-(1-methyl-1H-1,2,3-triazol-4-yl)cyclopropyl)-1H-pyrrole-3-carboxylic acid]	10 to 100 nM	1 to 10 nM
Cn1cc([C@@H]2C[C@H]2c2c(C(=O)O)ccn2-c2cccc(CN3Cc4ccccc4CC(C)(C)C3)c2)nn1 (racemic) [Example 21]	100 to 1000 nM	100 to 1000 nM
CCC[C@@H]1CCCCN1C(=O)c1cccc(-c2cccc(-n3ccc(C(=O)O)c3[C@@H]3C[C@H]3c3cn(C)nn3)c2)c1 (racemic) [Example 14, 2-(trans-2-(1-methyl-1H-1,2,3-triazol-4-yl)cyclopropyl)-1-(3′-((R)-2-propylpiperidine-1-carbonyl)-[1,1′-biphenyl]-3-yl)-1H-pyrrole-3-carboxylic acid]	10 to 100 nM	10 to 100 nM
C[C@H](Oc1cccc(-c2cccc(-n3ccc(C(=O)O)c3[C@@H]3C[C@H]3c3cn(C)nn3)c2)c1)C1CCCCC1 (racemic) [Example 13, 1-(3′-((S)-1-Cyclohexylethoxy)-[1,1′-biphenyl]-3-yl)-2-(trans-2-(1-methyl-1H-1,2,3-triazol-4-yl)cyclopropyl)-1H-pyrrole-3-carboxylic acid]	100 to 1000 nM	10 to 100 nM
CCC[C@@H]1CCCCN1C(=O)c1cccc(-c2cccc(-n3ccc(C(=O)O)c3[C@@H]3C[C@H]3c3cn(C)nn3)c2)c1Br [Example 22]	10 to 100 nM	10 to 100 nM
C[C@H](Oc1cccc(-c2cccc(-n3ccc(C(=O)O)c3[C@H]3C[C@@H]3c3cn(C)nn3)c2)c1)C1CCCCC1 [Example 17, 1-(3′-((S)-1-cyclohexylethoxy)-[1,1′-biphenyl]-3-yl)-2-((1S,2S)-2-(1-methyl-1H-1,2,3-triazol-4-yl)cyclopropyl)-1H-pyrrole-3-carboxylic acid]	100 to 1000 nM	10 to 100 nM
CCC[C@@H]1CCCCN1C(=O)c1cc(F)cc(-c2cccc(-n3ccc(C(=O)O)c3[C@@H]3C[C@H]3c3cn(C)nn3)c2)c1 [Example 23]	10 to 100 nM	10 to 100 nM

More lines, main results first:

EC50 [2]	SMILES	EC50 [1]
100 to 1000 nM	Cc1c(CN2C[C@@H](C)Cc3ccc(C(F)(F)F)cc3S2(=O)=O)cccc1-n1ccc(C(=O)O)c1[C@@H]1C[C@H]1c1cn(C)nn1 (racemic) [Example 10, rac-2-(trans-2-(1-methyl-1H-1,2,3-triazol-4-yl)cyclopropyl)-1-(2-methyl-3-(((S)-4-methyl-1,1-dioxido-8-(trifluoromethyl)-4,5-dihydrobenzo[f][1,2]thiazepin-2(3H)-yl)methyl)phenyl)-1H-pyrrole-3-carboxylic acid]	100 to 1000 nM
10 to 100 nM	CC[C@H]1Cc2cc(C(F)(F)F)ccc2S(=O)(=O)N(Cc2cccc(-n3ccc(C(=O)O)c3[C@@H]3C[C@H]3c3cn(C)nn3)c2)C1 [Example 7, 1-(3-(((S)-4-ethyl-1,1-dioxido-7-(trifluoromethyl)-4,5-dihydrobenzo[f][1,2]thiazepin-2(3H)-yl)methyl)phenyl)-2-((1R,2R)-2-(1-methyl-1H-1,2,3-triazol-4-yl)cyclopropyl)-1H-pyrrole-3-carboxylic acid]	1 to 10 nM
100 to 1000 nM	Cn1cc([C@@H]2C[C@H]2c2c(C(=O)O)ccn2-c2cccc(CN3Cc4cc(F)ccc4OC(C)(C)C3)c2)nn1 (racemic) [Example 19]	100 to 1000 nM
10 to 100 nM	C[C@H]1Cc2ccc(Br)cc2S(=O)(=O)N(Cc2cccc(-n3ccc(C(=O)O)c3[C@@H]3C[C@H]3c3cn(C)nn3)c2)C1 [Example 8, 1-(3-(((S)-8-bromo-4-methyl-1,1-dioxido-4,5-dihydrobenzo[f][1,2]thiazepin-2(3H)-yl)methyl)phenyl)-2-((1R,2R)-2-(1-methyl-1H-1,2,3-triazol-4-yl)cyclopropyl)-1H-pyrrole-3-carboxylic acid]	1 to 10 nM
< 10 nM	CC[C@H]1Cc2ccc(Br)cc2S(=O)(=O)N(Cc2cccc(-n3ccc(C(=O)O)c3[C@@H]3C[C@H]3c3cn(C)nn3)c2)C1 [Example 9, 1-(3-(((S)-8-bromo-4-ethyl-1,1-dioxido-4,5-dihydrobenzo[f][1,2]thiazepin-2(3H)-yl)methyl)phenyl)-2-((1R,2R)-2-(1-methyl-1H-1,2,3-triazol-4-yl)cyclopropyl)-1H-pyrrole-3-carboxylic acid]	< 1 nM
10 to 100 nM	CCCC[C@H]1Cc2ccccc2S(=O)(=O)N(Cc2cccc(-n3ccc(C(=O)O)c3[C@@H]3C[C@H]3c3cn(C)nn3)c2)C1 [Example 3, 1-(3-(((S)-4-butyl-1,1-dioxido-4,5-dihydrobenzo[f][1,2]thiazepin-2(3H)-yl)methyl)phenyl)-2-((1R,2R)-2-(1-methyl-1H-1,2,3-triazol-4-yl)cyclopropyl)-1H-pyrrole-3-carboxylic acid]	10 to 100 nM
100 to 1000 nM	Cn1cc([C@@H]2C[C@H]2c2c(C(=O)O)ccn2-c2cccc(CN3Cc4cc(Br)ccc4OC(C)(C)C3)c2)nn1 (racemic) [Example 20]	100 to 1000 nM
10 to 100 nM	C[C@H]1Cc2cc(C(F)(F)F)ccc2S(=O)(=O)N(Cc2cccc(-n3ccc(C(=O)O)c3[C@@H]3C[C@H]3c3cn(C)nn3)c2)C1 (racemic) [Example 2, 1-(3-(((S)-4-methyl-1,1-dioxido-7-(trifluoromethyl)-4,5-dihydrobenzo[f][1,2]thiazepin-2(3H)-yl)methyl)phenyl)-2-(trans-2-(1-methyl-1H-1,2,3-triazol-4-yl)cyclopropyl)-1H-pyrrole-3-carboxylic acid]	10 to 100 nM
10 to 100 nM	CCCC[C@H]1Cc2ccc(C(F)(F)F)cc2S(=O)(=O)N(Cc2cccc(-n3ccc(C(=O)O)c3[C@@H]3C[C@H]3c3cn(C)nn3)c2)C1 [Example 6, 1-(3-(((S)-4-butyl-1,1-dioxido-8-(trifluoromethyl)-4,5-dihydrobenzo[f][1,2]thiazepin-2(3H)-yl)methyl)phenyl)-2-((1R,2R)-2-(1-methyl-1H-1,2,3-triazol-4-yl)cyclopropyl)-1H-pyrrole-3-carboxylic acid]	< 1 nM

Source: US20200031820A1, “3-CARBOXYLIC ACID PYRROLES AS NRF2 REGULATORS” (GLSXOSMITHKLINE INTELLECTUAL PROPERTY DEVELOPMENT LIMITED, priority 2016, published 2020)
